{"source": "patent US20210267251A1", "about": "“COMPOSITIONS AND METHODS USING A NICOTINAMIDE ADENINE DINUCLEOTIDE (NAD+) PRECURSOR AND AT LEAST ONE KETONE OR KETONE PRECURSOR” (SOCIETE DES PRODUITS NESTLE S.A., priority 2018, published 2021)", "tested_on": "human iPSC-derived astrocytes", "test": "Oxygen consumption (mitochondrial respiration) in human iPSC-derived astrocytes, Seahorse XF96", "type": "cell-based", "details": "hiPSC-derived astrocytes; NR 0.5 mM for 24 hours; ketone bodies BHB (0.5 mM or 2 mM) or BHP for 1 h in KRBH 1 mM glucose; uncoupled with FCCP 1 μM; FIG. 6", "procedure": "Differentiated human iPSC astrocytes were obtained from Cellular Dynamics International (CDI, Madison, Wis., USA). The cells were thawed according to the manufacturer's instructions. iCell astrocytes were cultured in DMEM supplemented with 10% fetal calf serum and N2 complement. Oxygen consumption in human iPSC-derived astrocytes was measured in a Seahorse XF96 instrument (Seahorse Bioscience, North Billerica, Mass., USA). Astrocytes were seeded directly into Seahorse 96-well tissue culture plates (XF96 FluxPaks no. 102416-100; Seahorse Bioscience) at a density of 40,000 cells per well. Cells were incubated for 24 hours with 0.5 mM of Nicotinamide riboside chloride (NR) or fresh medium before experiment. Four days after seeding, the cells were washed twice in KRBH 1 mM glucose and incubated for 1 h with the ketone bodies BHB (racemic (D,L) BHB) or BHP (D BHP) at the concentration indicated. The cells were maintained at 37° C. during the experiment. Mitochondrial respiration rates were determined every 6 minutes. […] The oxygen consumption rate in hiPSC-derived astrocytes was measured as an indication of mitochondrial function, using a Seahorse instrument. Through addition of the uncoupling agent FCCP, uncoupled (=maximal) respiration was determined.", "data": [{"smiles": "NC(=O)c1ccc[n+]([C@@H]2O[C@H](CO)[C@@H](O)[C@H]2O)c1", "note": "[NR, Nicotinamide riboside chloride]", "values": [{"measurement": "maximal (uncoupled) respiration, oxygen consumption rate", "value": "Neither ketone bodies alone nor NR treatment significantly increases maximal respiration"}]}]}
